Experimental data as given in patent US20090111822A1, “1,2,3-TRIAZOLE PYRROLIDINE DERIVATIVES AS MODULATORS OF MGLUR5” (AstraZeneca AB, priority 2007, published 2009).

Tests used:
human mGluR5d = target: T1, human mGluR5d (Homo sapiens, UniProt P41594); assay: FLIPR assay, mGluR5 antagonism (intracellular calcium mobilization); assay type: cell-based; conditions: cells expressing human mGluR5d; read-out: FLIPR hmGluR5d
T1 construct: expressed in transfected cells; The culture medium holds Hygromycin B and Zeocin, which points to a stably transfected line
T1 sequence (P41594 21-942 isoform P41594-3 limits assumed): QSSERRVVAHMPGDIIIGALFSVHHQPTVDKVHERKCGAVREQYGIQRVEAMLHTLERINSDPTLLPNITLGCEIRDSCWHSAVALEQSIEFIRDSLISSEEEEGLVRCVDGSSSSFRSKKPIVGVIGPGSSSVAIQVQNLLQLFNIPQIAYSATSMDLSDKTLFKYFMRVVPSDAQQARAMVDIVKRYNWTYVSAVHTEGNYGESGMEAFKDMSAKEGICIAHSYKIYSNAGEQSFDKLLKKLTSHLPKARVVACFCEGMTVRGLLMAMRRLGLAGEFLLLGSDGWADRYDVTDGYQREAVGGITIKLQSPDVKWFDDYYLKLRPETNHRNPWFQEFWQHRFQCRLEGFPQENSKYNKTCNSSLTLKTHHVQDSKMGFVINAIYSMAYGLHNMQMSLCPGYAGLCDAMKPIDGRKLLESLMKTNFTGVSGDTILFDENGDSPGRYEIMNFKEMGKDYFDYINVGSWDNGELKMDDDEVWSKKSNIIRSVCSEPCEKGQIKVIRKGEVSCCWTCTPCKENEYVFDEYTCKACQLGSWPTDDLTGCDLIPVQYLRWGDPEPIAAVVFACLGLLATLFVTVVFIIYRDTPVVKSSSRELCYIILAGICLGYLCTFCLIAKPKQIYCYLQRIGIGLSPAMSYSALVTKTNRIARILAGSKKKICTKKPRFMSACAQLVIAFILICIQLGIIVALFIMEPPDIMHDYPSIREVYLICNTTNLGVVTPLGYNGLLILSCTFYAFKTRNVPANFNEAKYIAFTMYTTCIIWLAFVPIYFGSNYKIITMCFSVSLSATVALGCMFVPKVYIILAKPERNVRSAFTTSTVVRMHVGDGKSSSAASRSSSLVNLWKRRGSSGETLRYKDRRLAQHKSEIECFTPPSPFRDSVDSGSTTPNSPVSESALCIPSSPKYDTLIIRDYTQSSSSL
Description: Functional Assessment of mGluR5 Antagonism in Cell Lines Expressing mGluR5D
The properties of the compounds of the invention can be analyzed using standard assays for pharmacological activity. Examples of glutamate receptor assays are well known in the art as described in for example Aramori et al, Neuron 8:757 (1992), Tanabe et al., Neuron 8:169 (1992), Miller et al., J. Neuroscience 15: 6103 (1995), Balazs, et al., J. Neurochemistry 69:151 (1997). The methodology described in these publications is incorporated herein by reference. […]
Cells expressing human mGluR5d as described in WO97/05252 cultured in a mixture of high glucose DMEM with Glutamax (31966-021) (500 mL), 10% dialyzed fetal bovine serum (Hyclone #SH30079.03) (56 mL), 200 μg/mL Hygromycin B (Invitrogen 45-0430, 50 mg/mL) (2.2 mL), 200 μg/mL Zeocin (Invitrogen #R250-01; 100 mg/mL) (1.1 mL) are seeded at a density of 100,000 cells per well on collagen coated clear bottom 96-well plates with black sides and cells were allowed to adhere over night before experiments. […] The fluorescence signal is sampled 50 times at 1-second intervals followed by 3 samples at 5-second intervals immediately after each of the two additions. Responses are measured as the difference between the peak heights of the response to agonist, less the background fluorescence within the sample period. […]

[1] = Determination of brain to plasma ratio in rat; assay type: in vivo; conditions: brain and plasma, female Sprague Dawley rats, drug in brain over drug in plasma, read-out: Brain/Plasma Ratio of compound in Rat
Procedure: Brain to plasma ratios are estimated in female Sprague Dawley rats. The compound is dissolved in water or another appropriate vehicle. For determination of brain to plasma ratio the compound is administrated as a subcutaneous, or an intravenous bolus injection, or an intravenous infusion, or an oral administration. At a predetermined time point after the administration a blood sample is taken with cardiac puncture. The rat is terminated by cutting the heart open, and the brain is immediately retained. The blood samples are collected in heparinized tubes and centrifuged within 30 minutes, in order to separate the plasma from the blood cells. The plasma is transferred to 96-well plates and stored at −20° C. until analysis. The brains are divided in halt and each half is placed in a pre-tarred tube and stored at −20° C. until analysis. Prior to the analysis, the brain samples are thawed and 3 mL/g brain tissue of distilled water is added to the tubes. The brain samples are sonicated in an ice bath until the samples are homogenized. Both brain and plasma samples are precipitated with acetonitrile. After centrifugation, the supernatant is diluted with 0.2% formic acid. […] After reconstitution of the residuals the samples are ready for injection onto the HPLC column.

| Compound | IC50 (human mGluR5d) [nM] | Kp [1] |
| --- | --- | --- |
| Cn1c(-c2ccncc2)nnc1N1CCC[C@@H]1c1cn(-c2cccc(Cl)c2)nn1 [Example 8.1, 4-(5-{(2R)-2-[1-(3-Chlorophenyl)-1H-1,2,3-triazol-4-yl]pyrrolidin-1-yl}-4-methyl-4H-1,2,4-triazol-3-yl)pyridine] | 58 | 0.03 |
| Cn1c(-c2cccnc2)nnc1N1CCC[C@@H]1c1cn(-c2cccc(Cl)c2)nn1 [Example 8.2, 3-(5-{(2R)-2-[1-(3-chlorophenyl)-1H-1,2,3-triazol-4-yl]pyrrolidin-1-yl}-4-methyl-4H-1,2,4-triazol-3-yl)pyridine] | 116 | < 0.015 |
